Among the data in ChEMBL document CHEMBL1124186, “Synthesis and evaluation of tylosin-related macrolides modified at the aldehyde function: a new series of orally effective antibiotics” (1988) are MIC and ED50 values, retold here.

The test system of one test is Staphylococcus aureus. Nature of the test: In vitro antimicrobial activity against Staphylococcus aureus X1. It counts as functional.
The subject of test [1] is Staphylococcus epidermidis. Kind of test: In vitro antimicrobial activity against Staphylococcus epidermidis EPI1. It counts as functional.
Test [2] has as its system Streptococcus pyogenes. Kind of test: In vitro antimicrobial activity against Streptococcus pyogenes C203. The class given is functional.
For another test, the system named is Haemophilus influenzae. Kind of test: In vitro antimicrobial activity against Haemophilus influenzae. It counts as functional.
The subject of test [3] is Streptococcus pyogenes. Kind of test: In vivo effective dose against experimental infections in rodent caused by Streptococcus pyogenes C203 when administered subcutaneously. It counts as functional. The conditions noted are these: sc.
For the next test, the system named is Streptococcus pneumoniae. Nature of the test: In vitro antimicrobial activity against Streptococcus pneumoniae. It counts as functional.
Another test has as its system Enterococcus faecium. Kind of test: In vitro antimicrobial activity against Streptococcus faecium X66. It counts as functional, streptococcus fae-cium.
Test [4] has as its system Streptococcus pyogenes. Nature of the test: In vivo effective dose against experimental infections in rodent caused by Streptococcus pyogenes C203 when administered orally. The conditions noted are these: po. It counts as functional.

SMILES strings stand for the structures. ≈ marks a conversion by molar mass, not a printed value.

As a reminder, the ED50 is the midpoint of the dose-response relation. For the compound `CC[C@H]1OC(=O)C[C@@H](O)[C@H](C)[C@@H](O[C@@H]2O[C@H](C)[C@@H](O[C@H]3C[C@@](C)(O)[C@@H](O)[C@H](C)O3)[C@H](N(C)C)[C@H]2O)[C@@H](CCO)C[C@@H](C)C(=O)/C=C/C(C)=C/[C@@H]1CO[C@@H]1O[C@H](C)[C@@H](O)[C@@H](O)[C@H]1OC`, the MIC against Staphylococcus aureus is 16 µg/mL (≈ 17.7 µM); in test [1], 4 µg/mL (≈ 4.42 µM); in the test with Streptococcus pyogenes [2], 4 µg/mL (≈ 4.42 µM); against Haemophilus influenzae, greater than 128 µg/mL; in the test with Streptococcus pneumoniae, 32 µg/mL (≈ 35.4 µM); against Enterococcus faecium, 128 µg/mL (≈ 142 µM). The ED50 in the test on Streptococcus pyogenes [3] is greater than 10 mg/kg; with Streptococcus pyogenes [4], greater than 100 mg/kg.
